From patent US20240360153A1 (Regeneron Pharmaceuticals, Inc., priority 2023, published 2024)

Tests used:
[1] = tested on: S6K1 (Thr389) phosphorylation (mTORC1 activity) in wild-type (WT) 293T cells; experiment: Inhibition of S6K1 (Thr389) phosphorylation in wild-type 293T cells (ELISA); format: cell-based, human; details: for IC50: Homo sapiens, HEK-293T, 2 h, wild-type 293T cells, 2 hours treatment; for extent of inhibition of S6K1 (Thr389) phosphorylation: with increasing concentrations
Procedure, shortened: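 WT 293T cells in DMEM + 10% FBS, grown 24 h to ~80% confluence, then treated 2 h at 37 °C in duplicate with compounds over an 8–11-point range from 0.001 pM to 10 μM. DMSO vehicle served as negative control. Phospho-S6K1 (Thr389) measured by ELISA.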

[2] = Pharmacokinetic studies in male CD-1 mice (plasma, IV and PO); format: in vivo, mouse; details: male; for clearance / Vd / bioavailability: CD-1, plasma, mouse; for clearance / Vd / half-life: IV 2 mg/kg; for clearance: read-out: CI(mL/min/kg), compounds clearance following IV administration; for Vd: read-out: Vdss (L/kg), volume of distribution following IV administration; for bioavailability: PO 20 mg/kg vs IV 2 mg/kg; for half-life / Cmax / concentration at 8 h / concentration at 24 h: CD-1, mouse plasma; for half-life: read-out: IV T1/2 (converted); for Cmax / concentration at 8 h / concentration at 24 h: PO 20 mg/kg; for concentration at 8 h: read-out: Compound concentration at 8-hour, PO administration; for concentration at 24 h: read-out: Compound concentration at 24-hour, PO administration
Method: Animal experiments were carried out at Wuxi AppTec. Male 6-8 weeks old CDI mice were obtained from Hilltop Labs. Following arrival at Wuxi AppTec, mice were housed in animal rooms with environmental control (temperature: 20 to 26° C.; lighting: 12 hour light/dark cycle). Mice were fed with certified pellet diet (Certified Rodent Diet #5002 by LabDiet). Water was provided to the animals ad libitum. Mice were acclimated to the facility for at least 3 days prior to starting experiments.
Appropriate amount of test article formulated in 5% ethanol, 5% Tween-80 and 5% PEG-400, 85% water. Formulation was prepared on the day of dosing and dosed within 2 hours following preparation of formulations. Dose accuracy was determined by LC-MS/MS.
Dose formulation(s) were administered following facility SOPs. Dose volumes were determined individually prior to dosing based on animals' body weights.
About 40 μL of blood samples were collected via peripheral veins (e.g. saphenous veins) at each pre-defined time point. Blood samples were collected into tubes containing K2EDTA as anti-coagulant and kept on ice until centrifugation.
Blood samples were centrifuged at 4° C., 3000 g for 5 min within half an hour of collection. Plasma was transferred into polypropylene tubes or 96-well plates, promptly frozen on dry ice and stored at −70±10° C. until analysis by LC-MS/MS.
Test compound concentration in mouse plasma was determined with LC-MS/MS method using a calibration curve with at least 6 non-zero calibration standards.
The pharmacokinetics (PK) of the test article was analyzed using Phoenix WinNonlin software (version 8.3) and non-compartmental analysis model. Derived PK parameters include, but not limited to, C0, CLp, Vdss, Cmax, Tmax, T1/2, AUC(0-t), AUC(0-inf), MRT(0-t), MRT(0-inf) and % F (bioavailability).

[3] = In vitro microsomal metabolic stability, human liver microsomes; format: in vitro ADME; details: for Remaining (T = 60 min) / Remaining (T = NCF60 min) / half-life at 1 µM: Human liver microsomes; for Remaining (T = 60 min): with NADPH; for Remaining (T = NCF60 min): without NADPH regenerating system; for Remaining (T = 60 min) / Remaining (T = NCF60 min): 60 min; for half-life at 1 µM: 0.5 mg/ml protein, NADPH
Procedure, shortened: (§1)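 Compounds at 1 μM incubated at 37° C with pooled CD-1 mouse or human liver microsomes (0.5 mg/mL protein) plus NADPH regenerating system in 50 mM potassium phosphate, pH 7.2, 3.3 mM MgCl2; sampled at 0–60 min, 60-min no-NADPH control. Parent loss by LC/MS/MS analyte/IS peak-area ratio, n=1.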

[4] = In vitro microsomal metabolic stability, CD-1 mouse liver microsomes; format: in vitro ADME; details: for CLint scaled at 1 µM / microsomal CLint at 1 µM: CD-1, mouse, mouse liver microsomes, pH 7.2; for half-life at 1 µM: CD-1, pH 7.2, 0.5 mg/ml protein, NADPH; for half-life at 1 µM / Remaining (T = 60 min) / Remaining (T = NCF60 min): Mouse liver microsomes; for Remaining (T = 60 min): with NADPH; for Remaining (T = NCF60 min): without NADPH regenerating system; for Remaining (T = 60 min) / Remaining (T = NCF60 min): 60 min
Procedure, shortened: as §1

[5] = tested on: S6K1 (Thr389) phosphorylation (mTORC1 activity) in FKBP12 knock-out 293T cells; experiment: Inhibition of S6K1 (Thr389) phosphorylation in FKBP12 knock-out 293T cells (ELISA); format: cell-based, human; details: for selectivity for FKBP12 compared with RAD001 (in words): wild-type versus FKBP12 knock-out cells
Procedure, shortened: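 CRISPR-generated FKBP12 knock-out HEK293T cells, alongside wild-type, were treated in duplicate for 2 hours at 37 °C with an 8–11-point dose range (0.001 pM–10 μM). Phospho-S6K1 Thr389 quantified by ELISA as an mTORC1 activity read-out, with DMSO as negative control.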

[6] = human, human liver microsomes, pH 7.2

**Q.** For `CO[C@@H]1CC(C[C@@H](C)[C@@H]2CC[C@H](C)/C=C(\C)[C@@H](O)[C@@H](OC)C(=O)[C@H](C)C[C@H](C)/C=C/C=C/C=C(\C)C(Nc3ccccc3)CC3CC[C@@H](C)[C@@](O)(O3)C(=O)C(=O)N3CCCC[C@H]3C(=O)O2)CC[C@H]1O` (stereo partly drawn) [Compound 26, (3S,6S,7E,9R,10R,12R,14S,15E,17E,19E,23S,26R,27R,34aS)-9,27-dihydroxy-3-((R)-1-((1S,3R,4R)-4-hydroxy-3-methoxycyclohexyl)propan-2-yl)-10-methoxy-6,8,12,14,20,26-hexamethyl-21-(phenylamino)-5,6,9,10,12,13,14,21,22,23,24,25,26,27,32,33,34,34a-octadecahydro-3H-23,27-epoxypyrido[2,1-c][1]oxa[4]azacyclohentriacontine-1,11,28,29(4H,31H)-tetraone], which IC50 [1] is on record?
**A.** 0.55 nM

**Q.** And the “extent of inhibition of S6K1 (Thr389) phosphorylation” value ([1]; wild-type cells)?
**A.** complete inhibition

**Q.** And the clearance [2]?
**A.** 2.31 mL/min/kg

**Q.** And the Vd [2]?
**A.** 0.828 L/kg

**Q.** And the bioavailability [2]?
**A.** 28.5%

**Q.** What about the half-life [2] of the same compound?
**A.** 5.25 h

**Q.** And the Cmax [2]?
**A.** 4120 ng/mL

**Q.** What about the concentration at 8 h [2] of the same compound?
**A.** 1320 ng/mL

**Q.** And the concentration at 24 h [2]?
**A.** 184 ng/mL

**Q.** What about the “Remaining (T = 60 min)” value [3] of the same compound?
**A.** 6.60%

**Q.** And the “Remaining (T = NCF60 min)” value [3]?
**A.** 92.80%

**Q.** What about the CLint scaled at 1 µM [3, 6] of the same compound?
**A.** 80.9 mL/min/kg

**Q.** And the microsomal CLint at 1 µM [3, 6]?
**A.** 89.9 µL/min/mg

**Q.** And the half-life at 1 µM ([3]; pH 7.2)?
**A.** 0.257 h

**Q.** And the CLint scaled at 1 µM [4]?
**A.** 41.9 mL/min/kg

**Q.** And the microsomal CLint at 1 µM [4]?
**A.** 10.6 µL/min/mg

**Q.** What about the half-life at 1 µM [4] of the same compound?
**A.** 2.18 h

**Q.** And the “Remaining (T = 60 min)” value [4]?
**A.** 69.80%

**Q.** What about the “Remaining (T = NCF60 min)” value [4] of the same compound?
**A.** 92.30%

**Q.** What about the “IC50 of inhibition of S6K1 (Thr389)” value ([5]; FKBP12 knock-out 293T cells) of the same compound?
**A.** not measurable/detectable

**Q.** And the “inhibition of S6K1 (Thr389) phosphorylation in the absence of FKBP12 (in words)” value ([5]; FKBP12 knock-out cells)?
**A.** not inhibit S6K1 at any tested concentrations

**Q.** What about the “selectivity for FKBP12 compared with RAD001 (in words)” value [5] of the same compound?
**A.** more selective to FKBP12 compared with RAD001

**Q.** Which IC50 [1] does the source give for `CO[C@@H]1C[C@H](C[C@@H](C)[C@@H]2CC[C@H](C)/C=C(\C)[C@@H](O)[C@@H](OC)C(=O)[C@H](C)C[C@H](C)/C=C/C=C/C=C(\C)C(Nc3cnon3)C[C@@H]3CC[C@@H](C)[C@@](O)(O3)C(=O)C(=O)N3CCCCC3C(=O)O2)CC[C@H]1O` (stereo partly drawn) [Compound 45, (3S,6S,7E,9R,10R,12R,14S,15E,17E,19E,23S,26R,27R,34aS)-21-((1,2,5-oxadiazol-3-yl)amino)-9,27-dihydroxy-3-((R)-1-((1S,3R,4R)-4-hydroxy-3-methoxycyclohexyl)propan-2-yl)-10-methoxy-6,8,12,14,20,26-hexamethyl-5,6,9,10,12,13,14,21,22,23,24,25,26,27,32,33,34,34a-octadecahydro-3H-23,27-epoxypyrido[2,1-c][1]oxa[4]azacyclohentriacontine-1,11,28,29(4H,31H)-tetraone] here?
**A.** 8.4 nM

**Q.** And the “fold lower potency compared with RAD001 (by IC50)” value ([1]; wild-type cells)?
**A.** ~18 fold

**Q.** What about the “extent of inhibition of S6K1 (Thr389) phosphorylation” value ([1]; wild-type cells) of the same compound?
**A.** completely inhibit

**Q.** And the clearance [2]?
**A.** 1.13 mL/min/kg

**Q.** And the Vd [2]?
**A.** 0.475 L/kg

**Q.** What about the bioavailability [2] of the same compound?
**A.** 17%

**Q.** What about the half-life [2] of the same compound?
**A.** 5.63 h

**Q.** And the Cmax [2]?
**A.** 9180 ng/mL

**Q.** What about the concentration at 8 h [2] of the same compound?
**A.** 1520 ng/mL

**Q.** What about the concentration at 24 h [2] of the same compound?
**A.** 239 ng/mL

**Q.** What about the “Remaining (T = 60 min)” value [3] of the same compound?
**A.** 0.00%

**Q.** What about the “Remaining (T = NCF60 min)” value [3] of the same compound?
**A.** 71.30%

**Q.** And the microsomal CLint at 1 µM [3, 6]?
**A.** 194 µL/min/mg

**Q.** And the half-life at 1 µM ([3]; pH 7.2)?
**A.** 0.119 h

**Q.** And the CLint scaled at 1 µM [4]?
**A.** 64.8 mL/min/kg

**Q.** What about the microsomal CLint at 1 µM [4] of the same compound?
**A.** 16.4 µL/min/mg

**Q.** What about the half-life at 1 µM [4] of the same compound?
**A.** 1.41 h

**Q.** What about the “Remaining (T = 60 min)” value [4] of the same compound?
**A.** 64.30%

**Q.** What about the “Remaining (T = NCF60 min)” value [4] of the same compound?
**A.** 81.40%

**Q.** What about the “inhibition of S6K1 (Thr389) phosphorylation in the absence of FKBP12 (in words)” value ([5]; FKBP12 knock-out cells) of the same compound?
**A.** much less inhibition of S6K1 phosphorylation

**Q.** What about the “fold less potent compared with RAD001” value ([5]; FKBP12 knock-out cells, at similar level of inhibition) of the same compound?
**A.** ~100 fold

**Q.** What about the inhibition at 10 µM ([5]; Homo sapiens, HEK-293T, FKBP12 knock-out cells, 10 μM (highest tested concentration)) of the same compound?
**A.** ~25%

**Q.** What about the “selectivity for FKBP12 compared with RAD001 (in words)” value [5] of the same compound?
**A.** relatively more selective for FKBP12 compared with RAD001
